Target: T1, voltage-dependent T-type calcium channel subunit alpha-1G (Cav3.2) (Homo sapiens, UniProt O95180)
T1 construct: expressed in transfected cells; host or cells: HEK293
Assay: FLIPR calcium flux assay, HEK293 cells recombinantly expressing Cav3.2
Assay type: cell-based
Conditions: Cav3.2-channel, Fluo-4-AM, 3 min incubation, stimulation with 10 mM CaCl2
Method in brief: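 HEK293 cells stably expressing human Cav3.2 were loaded with Fluo-4-AM. Compounds diluted in TEAC buffer (pH 7.2) were preincubated for 3 min, then Ca2+ entry was triggered by 10 mM final CaCl2. Inhibition curves were fitted sigmoidally to the area under the fluorescence trace.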

T1 sequence (O95180 whole entry): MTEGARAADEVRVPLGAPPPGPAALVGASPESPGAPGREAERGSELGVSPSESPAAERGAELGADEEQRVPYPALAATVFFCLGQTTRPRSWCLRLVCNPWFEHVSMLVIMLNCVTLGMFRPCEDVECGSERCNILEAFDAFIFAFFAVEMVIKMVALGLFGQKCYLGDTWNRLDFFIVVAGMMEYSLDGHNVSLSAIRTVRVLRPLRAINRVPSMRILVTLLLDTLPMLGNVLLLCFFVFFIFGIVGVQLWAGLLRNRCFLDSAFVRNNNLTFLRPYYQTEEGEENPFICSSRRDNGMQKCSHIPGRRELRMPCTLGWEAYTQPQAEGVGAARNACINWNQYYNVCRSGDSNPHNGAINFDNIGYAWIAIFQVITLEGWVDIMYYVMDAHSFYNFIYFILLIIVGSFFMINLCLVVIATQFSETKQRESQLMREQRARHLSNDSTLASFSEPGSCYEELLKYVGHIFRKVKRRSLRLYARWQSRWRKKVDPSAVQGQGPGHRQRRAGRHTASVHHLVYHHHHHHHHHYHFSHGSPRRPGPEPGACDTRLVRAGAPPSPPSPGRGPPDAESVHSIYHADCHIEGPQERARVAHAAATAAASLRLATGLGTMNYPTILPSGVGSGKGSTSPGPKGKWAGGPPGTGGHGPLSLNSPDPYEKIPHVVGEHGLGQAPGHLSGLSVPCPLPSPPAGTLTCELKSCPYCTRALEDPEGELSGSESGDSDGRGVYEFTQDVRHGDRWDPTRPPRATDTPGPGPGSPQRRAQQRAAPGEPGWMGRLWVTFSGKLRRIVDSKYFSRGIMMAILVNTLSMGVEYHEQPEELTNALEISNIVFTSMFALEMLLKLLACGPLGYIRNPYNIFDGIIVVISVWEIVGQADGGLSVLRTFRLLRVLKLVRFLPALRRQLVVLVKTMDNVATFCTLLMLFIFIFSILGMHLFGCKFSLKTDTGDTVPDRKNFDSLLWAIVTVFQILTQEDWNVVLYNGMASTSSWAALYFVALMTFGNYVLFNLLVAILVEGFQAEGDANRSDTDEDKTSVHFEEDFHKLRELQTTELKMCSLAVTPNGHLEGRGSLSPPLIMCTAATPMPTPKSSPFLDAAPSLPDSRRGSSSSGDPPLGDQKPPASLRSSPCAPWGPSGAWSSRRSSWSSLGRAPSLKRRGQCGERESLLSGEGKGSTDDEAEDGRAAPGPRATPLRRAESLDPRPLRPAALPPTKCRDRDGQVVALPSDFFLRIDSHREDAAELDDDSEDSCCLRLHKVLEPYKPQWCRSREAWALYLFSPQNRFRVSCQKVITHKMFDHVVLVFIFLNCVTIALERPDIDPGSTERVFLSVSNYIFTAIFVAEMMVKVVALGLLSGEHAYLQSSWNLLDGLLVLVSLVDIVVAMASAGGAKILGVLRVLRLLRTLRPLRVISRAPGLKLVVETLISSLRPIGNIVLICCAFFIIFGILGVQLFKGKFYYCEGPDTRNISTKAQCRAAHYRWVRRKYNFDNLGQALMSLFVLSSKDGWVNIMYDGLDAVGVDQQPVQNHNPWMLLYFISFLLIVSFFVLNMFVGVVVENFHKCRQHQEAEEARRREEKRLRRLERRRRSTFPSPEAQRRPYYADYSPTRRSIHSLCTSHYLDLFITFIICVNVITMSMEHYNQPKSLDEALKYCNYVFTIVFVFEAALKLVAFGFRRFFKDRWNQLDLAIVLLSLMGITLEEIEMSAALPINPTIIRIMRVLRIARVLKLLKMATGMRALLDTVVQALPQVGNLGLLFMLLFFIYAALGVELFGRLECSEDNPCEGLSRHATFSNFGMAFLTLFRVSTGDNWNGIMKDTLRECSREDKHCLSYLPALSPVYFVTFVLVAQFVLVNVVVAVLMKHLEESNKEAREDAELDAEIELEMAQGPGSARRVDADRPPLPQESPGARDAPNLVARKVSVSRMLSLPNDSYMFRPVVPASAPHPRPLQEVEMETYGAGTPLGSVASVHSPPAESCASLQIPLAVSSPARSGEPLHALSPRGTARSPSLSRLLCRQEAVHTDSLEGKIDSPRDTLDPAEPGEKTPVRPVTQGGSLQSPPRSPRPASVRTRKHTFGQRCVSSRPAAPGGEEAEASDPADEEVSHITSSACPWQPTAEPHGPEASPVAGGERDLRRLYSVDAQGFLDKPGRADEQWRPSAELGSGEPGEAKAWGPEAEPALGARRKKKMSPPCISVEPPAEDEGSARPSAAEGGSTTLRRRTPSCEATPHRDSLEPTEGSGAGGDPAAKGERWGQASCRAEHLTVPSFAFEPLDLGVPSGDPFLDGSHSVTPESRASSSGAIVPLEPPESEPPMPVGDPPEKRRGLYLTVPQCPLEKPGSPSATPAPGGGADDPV

Row | IC50 [nM] | Structure (SMILES)
1 | 159 | Cn1ncc2ccc(CC(=O)Nc3ccn(Cc4cc(F)c(C#N)c(F)c4)n3)cc21 [Example 346, N-[1-(4-Cyano-3,5-difluoro-benzyl)-1H-pyrazol-3-yl]-2-(1-methyl-1H-indazol-6-yl)-acetamide]
2 | 85 | N#Cc1c(F)cc(Cn2ccc(NC(=O)Cc3ccc(C4(F)COC4)cc3)n2)cc1F [Example 347, N-[1-(4-Cyano-3,5-difluoro-benzyl)-1H-pyrazol-3-yl]-2-[4-(3-fluoro-oxetan-3-yl)-phenyl]-acetamide]
3 | 29 | Cc1nn(C)c2ccc(CC(=O)Nc3ccn(Cc4cc(F)c(C#N)c(F)c4)n3)cc12 [Example 348, N-[1-(4-Cyano-3,5-difluoro-benzyl)-1H-pyrazol-3-yl]-2-(1,3-dimethyl-1H-indazol-5-yl)-acetamide]
4 | 23 | N#Cc1c(F)cc(Cn2ccc(NC(=O)Cc3ccc(N4CCC(F)(F)C4)nc3)n2)cc1F [Example 349, N-[1-(4-Cyano-3,5-difluoro-benzyl)-1H-pyrazol-3-yl]-2-[6-(3,3-difluoro-pyrrolidin-1-yl)-pyridin-3-yl]-acetamide]
5 | 69 | N#Cc1c(F)cc(Cn2ccc(NC(=O)Cc3ccc(C4(C(F)(F)F)CC4)cc3)n2)cc1F [Example 350, N-[1-(4-Cyano-3,5-difluoro-benzyl)-1H-pyrazol-3-yl]-2-[4-(1-trifluoromethyl-cyclopropyl)-phenyl]-acetamide]
6 | 65 | N#Cc1c(F)cc(Cn2ccc(NC(=O)Cc3ccc(N4CCCC4)nc3)n2)cc1F [Example 351, N-[1-(4-Cyano-3,5-difluoro-benzyl)-1H-pyrazol-3-yl]-2-(6-pyrrolidin-1-yl-pyridin-3-yl)-acetamide]
7 | 30 | CC(C)c1ccc(CC(=O)Nc2ccn(Cc3cc(F)c(C#N)c(F)c3)n2)cc1 [Example 353, N-[1-(4-Cyano-3,5-difluoro-benzyl)-1H-pyrazol-3-yl]-2-(4-isopropyl-phenyl)-acetamide]
8 | 34 | CCn1ncc2cc(CC(=O)Nc3ccn(Cc4cc(F)c(C#N)c(F)c4)n3)ccc21 [Example 357, N-[1-(4-Cyano-3,5-difluoro-benzyl)-1H-pyrazol-3-yl]-2-(1-ethyl-1H-indazol-5-yl)-acetamide]
9 | 20 | Cc1cn(C)c2ccc(CC(=O)Nc3ccn(Cc4cc(F)c(C#N)c(F)c4)n3)cc12 [Example 358, N-[1-(4-Cyano-3,5-difluoro-benzyl)-1H-pyrazol-3-yl]-2-(1,3-dimethyl-1H-indol-5-yl)-acetamide]

More lines, now with the values behind:

Row | Structure (SMILES) | IC50 [nM]
10 | CC(C)(C)c1ccc(CC(=O)Nc2ccn(Cc3cc(F)c(C#N)c(F)c3)n2)cc1 [Example 352, 2-(4-tert-Butyl-phenyl)-N-[1-(4-cyano-3,5-difluoro-benzyl)-1H-pyrazol-3-yl]-acetamide] | 22
11 | N#Cc1ccc(Cn2ccc(NC(=O)Cc3ccc(C4(C#N)CC4)cc3)n2)nc1 [Example 354, 2-[4-(1-Cyano-cyclopropyl)-phenyl]-N-[1-(5-cyano-pyridin-2-ylmethyl)-1H-pyrazol-3-yl]-acetamide] | 248
12 | N#Cc1cc(Cn2ccc(NC(=O)Cc3ccc(C4(C#N)CC4)cc3)n2)ccc1F [Example 355, 2-[4-(1-Cyano-cyclopropyl)-phenyl]-N-[1-(3-cyano-4-fluoro-benzyl)-1H-pyrazol-3-yl]-acetamide] | 26
13 | N#Cc1ccc(Cn2ccc(NC(=O)Cc3ccc(C4(O)CC4)cc3)n2)nc1 [Example 356, N-[1-(5-Cyano-pyridin-2-ylmethyl)-1H-pyrazol-3-yl]-2-[4-(1-hydroxy-cyclopropyl)-phenyl]-acetamide] | 327
14 | COC1(c2ccc(CC(=O)Nc3ccn(Cc4cc(F)c(C#N)c(F)c4)n3)cc2)COC1 [Example 359, N-[1-(4-Cyano-3,5-difluoro-benzyl)-1H-pyrazol-3-yl]-2-[4-(3-methoxy-oxetan-3-yl)-phenyl]-acetamide] | 212
15 | N#Cc1c(F)cc(Cn2ccc(NC(=O)Cc3ccc(OCC4COC4)cc3)n2)cc1F [Example 360, N-[1-(4-Cyano-3,5-difluoro-benzyl)-1H-pyrazol-3-yl]-2-[4-(oxetan-3-ylmethoxy)-phenyl]-acetamide] | 360

Reference: patent publication US9932314B2, “Pyrazole compounds and their use as T-type calcium channel blockers” (IDORSIA PHARMACEUTICALS LTD, priority 2015, dated 2018)
